Results from patent US20260022142A1, “MACROCYCLIC IMMUNOMODULATORS” (Bristol-Myers Squibb Company, priority 2022, published 2026).
Numbered stars: 1 amine (or outer) side, 2 acyl side, 3 side chain; on linkers, the order of the positions; unused ones are H or OH. Bridge positions count the residues as written; N and C are the ends. Square brackets hold non-standard residues; d marks the D form. Peptide text beside a SMILES is read from it. * marks the point of attachment. ξ: configuration not given here. Phe(3-CF3) = N[C@@H](Cc1cccc(C(F)(F)F)c1)C(=O)O; Phe(4-COOH) = N[C@@H](Cc1ccc(C(=O)O)cc1)C(=O)O; d(γGlu) = O=C(O)[C@@H](CCC(=O)[*:2])N[*:1]; Bip = N[C@@H](Cc1ccc(-c2ccccc2)cc1)C(=O)O; NH(CH2)14COOH = O=C(O)CCCCCCCCCCCCCCN*; Phe(3-Me) = Cc1cccc(C[C@H](N)C(=O)O)c1; γGlu = O=C(O)[C@H](CCC(=O)[*:2])N[*:1]; NH(CH2)12COOH = O=C(O)CCCCCCCCCCCCN*; Val(3-OH) = CC(C)(O)[C@H](N)C(=O)O; Cha = N[C@@H](CC1CCCCC1)C(=O)O; Thr(3ξ) = CC(O)[C@H](N)C(=O)O; PEG4 = NCCOCCOCCOCCOCCC(=O)O; Dap(Me) = CNC[C@H](N)C(=O)O; Carboxymethyl = O=C(O)C*; Orn = NCCC[C@H](N)C(=O)O; Dab = NCC[C@H](N)C(=O)O; AEEA = NCCOCCOCC(=O)O

Molecular target: T1, PD-1/PD-L1 interaction (PE-labeled human PD-L1-Ig binding to Jurkat cell line over-expressing human PD-1) (Homo sapiens, UniProt Q15116)
T1 construct: expressed in transfected cells; host or cells: Jurkat
T1 sequence (Q15116 25-288): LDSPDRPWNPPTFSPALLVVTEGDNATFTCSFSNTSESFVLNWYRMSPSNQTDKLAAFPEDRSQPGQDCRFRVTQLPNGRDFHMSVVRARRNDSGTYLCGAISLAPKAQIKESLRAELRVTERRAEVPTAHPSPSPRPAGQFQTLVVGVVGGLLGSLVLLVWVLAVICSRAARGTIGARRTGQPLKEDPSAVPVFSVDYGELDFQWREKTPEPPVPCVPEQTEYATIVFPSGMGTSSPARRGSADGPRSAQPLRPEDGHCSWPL
Test: Jurkat-PD-1 Cell Binding High-Content Screening Assay (CBA)
Type: cell-based
Conditions: Jurkat cell line over-expressing human PD-1; PE-labeled PD-L1-Ig 20 nM final; read-out: Jurkat hPD1-PDL1 IC50
Summary of the method: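 Human PD-L1-Ig carrying a covalent PE label on its Ig tag serves as the probe, applied at 20 nM final to compound-treated (2 h, 37° C) Jurkat-hPD-1 cells in medium with 10% fetal calf serum. After one hour, fixation and nuclear staining precede high-content image analysis.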

| SMILES | IC50 [nM] |
| --- | --- |
| CNC[C@@H]1NC(=O)CSC[C@@H](C(=O)N[C@@H](CCN)C(=O)NCCOCCOCC(=O)N[C@@H](CO)C(=O)N[C@@H](CO)C(=O)N[C@@H](CO)C(=O)N[C@@H](CO)C(=O)N[C@@H](CCC(=O)NCCCCCCCCCCCCCCC(=O)O)C(=O)O)NC(=O)[C@H](Cc2cnc[nH]2)NC(=O)[C@H](C(C)(C)O)NC(=O)[C@H](CC2CCCCC2)NC(=O)[C@H](CCN)NC(=O)[C@@H](CC(C)C)NC(=O)[C@H](CCCN)NC(=O)[C@H](Cc2ccc(C(=O)O)cc2)NC(=O)[C@H](Cc2ccc(-c3ccccc3)cc2)NC(=O)[C@H](Cc2ccc(C(=O)O)cc2)NC(=O)[C@H](Cc2cccc(C(F)(F)F)c2)NC(=O)[C@H](CC(=O)O)NC(=O)[C@H](Cc2ccc(OCC(=O)O)cc2)NC1=O [Compound 3901] ({CH2CO}-[Dap(Me)]Y(Carboxymethyl)D[Phe(3-CF3)][Phe(4-COOH)][Bip][Phe(4-COOH)][Orn][dL][Dab][Cha][Val(3-OH)]HC[Dab][AEEA]SSSSE(NH(CH2)14COOH)-OH; thioether N-14) | 173 |
| CC(C)C[C@H]1NC(=O)[C@H](CCCN)NC(=O)[C@H](Cc2ccc(OCC(=O)O)cc2)NC(=O)[C@H](Cc2ccc(-c3ccccc3)cc2)NC(=O)[C@H](Cc2ccc(C(=O)O)cc2)NC(=O)[C@H](Cc2cccc(C(F)(F)F)c2)NC(=O)[C@H](CC(=O)O)NC(=O)[C@H](Cc2ccc(OCC(=O)O)cc2)NC(=O)[C@H](C(C)O)NC(=O)CSC[C@@H](C(=O)N[C@@H](CCN)C(=O)NCCOCCOCC(=O)N[C@@H](CCC(=O)NCCOCCOCC(=O)NCCCCCCCCCCCCC(=O)O)C(=O)O)NC(=O)[C@H](CCC(=O)O)NC(=O)[C@H](C(C)C)NC(=O)[C@H](CC2CCCCC2)NC(=O)[C@H](CCN)NC1=O (stereo partly drawn) [Compound 3902] ({CH2CO}-[Thr(3ξ)]Y(Carboxymethyl)D[Phe(3-CF3)][Phe(4-COOH)][Bip]Y(Carboxymethyl)[Orn][dL][Dab][Cha]VEC[Dab][AEEA][γGlu][AEEA]-{NH(CH2)12COOH}; thioether N-14) | 67.2 |
| CNC[C@@H]1NC(=O)CSC[C@@H](C(=O)N[C@@H](CCN)C(=O)NCCOCCOCC(=O)N[C@@H](CCC(=O)NCCOCCOCC(=O)NCCCCCCCCCCCCC(=O)O)C(=O)O)NC(=O)[C@H](CO)NC(=O)[C@H](C(C)(C)O)NC(=O)[C@H](CC2CCCCC2)NC(=O)[C@H](CCN)NC(=O)[C@@H](CC(C)C)NC(=O)[C@H](CCCN)NC(=O)[C@H](Cc2ccc(C(=O)O)cc2)NC(=O)[C@H](Cc2ccc(-c3ccccc3)cc2)NC(=O)[C@H](Cc2ccc(C(=O)O)cc2)NC(=O)[C@H](Cc2cccc(C(F)(F)F)c2)NC(=O)[C@H](CC(=O)O)NC(=O)[C@H](Cc2ccc(OCC(=O)O)cc2)NC1=O [Compound 3903] ({CH2CO}-[Dap(Me)]Y(Carboxymethyl)D[Phe(3-CF3)][Phe(4-COOH)][Bip][Phe(4-COOH)][Orn][dL][Dab][Cha][Val(3-OH)]SC[Dab][AEEA][γGlu][AEEA]-{NH(CH2)12COOH}; thioether N-14) | 49.7 |
| CC(C)C[C@H]1NC(=O)[C@H](CCCN)NC(=O)[C@H](Cc2ccc(OCC(=O)O)cc2)NC(=O)[C@H](Cc2ccc(-c3ccccc3)cc2)NC(=O)[C@H](Cc2ccc(C(=O)O)cc2)NC(=O)[C@H](Cc2cccc(C(F)(F)F)c2)NC(=O)[C@H](CC(=O)O)NC(=O)[C@H](Cc2ccc(OCC(=O)O)cc2)NC(=O)[C@H](Cc2ccc(OCC(=O)O)cc2)NC(=O)CSC[C@@H](C(=O)N[C@@H](CCN)C(=O)NCCOCCOCC(=O)N[C@H](CCC(=O)NCCOCCOCC(=O)NCCCCCCCCCCCCC(=O)O)C(=O)O)NC(=O)[C@H](CO)NC(=O)[C@H](C(C)(C)O)NC(=O)[C@H](CC2CCCCC2)NC(=O)[C@H](CCN)NC1=O [Compound 3904] ({CH2CO}-Y(Carboxymethyl)Y(Carboxymethyl)D[Phe(3-CF3)][Phe(4-COOH)][Bip]Y(Carboxymethyl)[Orn][dL][Dab][Cha][Val(3-OH)]SC[Dab][AEEA][d(γGlu)][AEEA]-{NH(CH2)12COOH}; thioether N-14) | 38.1 |
| CNC[C@@H]1NC(=O)CSC[C@@H](C(=O)N[C@@H](CCN)C(=O)NCCOCCOCC(=O)N[C@@H](CCC(=O)NCCOCCOCC(=O)NCCCCCCCCCCCCC(=O)O)C(=O)O)NC(=O)[C@H](CO)NC(=O)[C@H](C(C)(C)O)NC(=O)[C@H](CC2CCCCC2)NC(=O)[C@H](CCN)NC(=O)[C@@H](CC(C)C)NC(=O)[C@H](CCCN)NC(=O)[C@H](Cc2ccc(OCC(=O)O)cc2)NC(=O)[C@H](Cc2ccc(-c3ccccc3)cc2)NC(=O)[C@H](Cc2ccc(OCC(=O)O)cc2)NC(=O)[C@H](Cc2cccc(C(F)(F)F)c2)NC(=O)[C@H](CC(=O)O)NC(=O)[C@H](Cc2ccc(OCC(=O)O)cc2)NC1=O [Compound 3905] ({CH2CO}-[Dap(Me)]Y(Carboxymethyl)D[Phe(3-CF3)]Y(Carboxymethyl)[Bip]Y(Carboxymethyl)[Orn][dL][Dab][Cha][Val(3-OH)]SC[Dab][AEEA][γGlu][AEEA]-{NH(CH2)12COOH}; thioether N-14) | 38.4 |
| Cc1cccc(C[C@@H]2NC(=O)[C@H](CC(=O)O)NC(=O)[C@H](Cc3ccc(OCC(=O)O)cc3)NC(=O)[C@H](C(C)O)NC(=O)CSC[C@@H](C(=O)N[C@@H](CCN)C(=O)NCCOCCOCC(=O)N[C@@H](CCC(=O)NCCOCCOCC(=O)NCCCCCCCCCCCCC(=O)O)C(=O)O)NC(=O)[C@H](CO)NC(=O)[C@H](C(C)(C)O)NC(=O)[C@H](CC3CCCCC3)NC(=O)[C@H](CCN)NC(=O)[C@@H](CC(C)C)NC(=O)[C@H](CCCN)NC(=O)[C@H](Cc3ccc(OCC(=O)O)cc3)NC(=O)[C@H](Cc3ccc(-c4ccccc4)cc3)NC(=O)[C@H](Cc3ccc(OCC(=O)O)cc3)NC2=O)c1 (stereo partly drawn) [Compound 3906] ({CH2CO}-[Thr(3ξ)]Y(Carboxymethyl)D[Phe(3-Me)]Y(Carboxymethyl)[Bip]Y(Carboxymethyl)[Orn][dL][Dab][Cha][Val(3-OH)]SC[Dab][AEEA][γGlu][AEEA]-{NH(CH2)12COOH}; thioether N-14) | 17.7 |
| Cc1cccc(C[C@@H]2NC(=O)[C@H](CC(=O)O)NC(=O)[C@H](Cc3ccc(OCC(=O)O)cc3)NC(=O)[C@H](C(C)O)NC(=O)CSC[C@@H](C(=O)N[C@@H](CCN)C(=O)NCCOCCOCC(=O)N[C@@H](CCC(=O)NCCOCCOCC(=O)NCCCCCCCCCCCCC(=O)O)C(=O)O)NC(=O)[C@H](CO)NC(=O)[C@H](C(C)(C)O)NC(=O)[C@H](CC3CCCCC3)NC(=O)[C@H](CCN)NC(=O)[C@@H](CC(C)C)NC(=O)[C@H](CCCN)NC(=O)[C@H](Cc3ccc(C(=O)O)cc3)NC(=O)[C@H](Cc3ccc(-c4ccccc4)cc3)NC(=O)[C@H](Cc3ccc(C(=O)O)cc3)NC2=O)c1 (stereo partly drawn) [Compound 3907] ({CH2CO}-[Thr(3ξ)]Y(Carboxymethyl)D[Phe(3-Me)][Phe(4-COOH)][Bip][Phe(4-COOH)][Orn][dL][Dab][Cha][Val(3-OH)]SC[Dab][AEEA][γGlu][AEEA]-{NH(CH2)12COOH}; thioether N-14) | 16.6 |
| COC[C@@H]1NC(=O)CSC[C@@H](C(=O)N[C@@H](CCN)C(=O)NCCOCCOCCOCCOCCC(=O)N[C@@H](CCC(=O)N[C@@H](CO)C(=O)NCCCCCCCCCCCCCCC(=O)O)C(=O)O)NC(=O)[C@H](CO)NC(=O)[C@H](C(C)(C)O)NC(=O)[C@H](CC2CCCCC2)NC(=O)[C@H](CCN)NC(=O)[C@@H](CC(C)C)NC(=O)[C@H](CCCN)NC(=O)[C@H](Cc2ccc(C(=O)O)cc2)NC(=O)[C@H](Cc2ccc(-c3ccccc3)cc2)NC(=O)[C@H](Cc2ccc(C(=O)O)cc2)NC(=O)[C@H](Cc2cccc(C(F)(F)F)c2)NC(=O)[C@H](CC(=O)O)NC(=O)[C@H](Cc2ccc(C(=O)O)cc2)NC1=O [Compound 3908] ({CH2CO}-S(Me)[Phe(4-COOH)]D[Phe(3-CF3)][Phe(4-COOH)][Bip][Phe(4-COOH)][Orn][dL][Dab][Cha][Val(3-OH)]SC[Dab][PEG4][γGlu]S-{NH(CH2)14COOH}; thioether N-14) | 125 |
| Cc1cccc(C[C@@H]2NC(=O)[C@H](CC(=O)O)NC(=O)[C@H](Cc3ccc(C(=O)O)cc3)NC(=O)[C@H](CC(C)C)NC(=O)CSC[C@@H](C(=O)N[C@@H](CCN)C(=O)NCCOCCOCCOCCOCCC(=O)NCCCCCCCCCCCCCCC(=O)O)NC(=O)[C@H](CCC(=O)O)NC(=O)[C@H](C(C)C)NC(=O)[C@H](CC3CCCCC3)NC(=O)[C@H](CCN)NC(=O)[C@@H](CC(C)C)NC(=O)[C@H](CCCN)NC(=O)[C@H](Cc3ccc(C(=O)O)cc3)NC(=O)[C@H](Cc3ccc(-c4ccccc4)cc3)NC(=O)[C@H](Cc3ccc(C(=O)O)cc3)NC2=O)c1 [Compound 3909] ({CH2CO}-L[Phe(4-COOH)]D[Phe(3-Me)][Phe(4-COOH)][Bip][Phe(4-COOH)][Orn][dL][Dab][Cha]VEC[Dab][PEG4]-{NH(CH2)14COOH}; thioether N-14) | 15.7 |
| CC(C)C[C@@H]1NC(=O)CSC[C@@H](C(=O)N[C@@H](CCN)C(=O)NCCOCCOCCOCCOCCC(=O)NCCCCCCCCCCCCCCC(=O)O)NC(=O)[C@H](CCC(=O)O)NC(=O)[C@H](C(C)C)NC(=O)[C@H](CC2CCCCC2)NC(=O)[C@H](CCN)NC(=O)[C@@H](CC(C)C)NC(=O)[C@H](CCCN)NC(=O)[C@H](Cc2ccc(C(=O)O)cc2)NC(=O)[C@H](Cc2ccc(-c3ccccc3)cc2)NC(=O)[C@H](Cc2ccc(C(=O)O)cc2)NC(=O)[C@H](Cc2cccc(C(F)(F)F)c2)NC(=O)[C@H](CC(=O)O)NC(=O)[C@H](Cc2ccc(C(=O)O)cc2)NC1=O [Compound 3910] ({CH2CO}-L[Phe(4-COOH)]D[Phe(3-CF3)][Phe(4-COOH)][Bip][Phe(4-COOH)][Orn][dL][Dab][Cha]VEC[Dab][PEG4]-{NH(CH2)14COOH}; thioether N-14) | 597 |
